Assay results from ChEMBL document CHEMBL1201862, “PubChem BioAssay data set” (2004).
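Grown in 96-well plates, cells were treated for 48 hours with each compound at five concentrations. Insufficient inhibition: endpoint recorded as highest concentration tested. GI50: concentration for 50% inhibition of growth.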 Active and inactive are the calls of the source. Cut-off read from the data, not from the text of the source: active = GI50 up to about 1.1 µM and inactive = higher.

How the values were obtained:
Assay in all cases: inhibition of tumour cell growth, NCI panel, 48 h
786-0 = test system: 786-0
A549 = test system: A549
ACHN = test system: ACHN
CAKI-1 = test system: CAKI-1
CCRF-CEM = test system: CCRF-CEM
COLO 205 = test system: COLO 205
DLD-1 = test system: DLD-1
DMS-273 = test system: DMS-273
EKVX = test system: EKVX
HCC 2998 = test system: HCC 2998
HCT-116 = test system: HCT-116
HCT-15 = test system: HCT-15
HL-60 = test system: HL-60
HOP-18 = test system: HOP-18
HOP-62 = test system: HOP-62
HOP-92 = test system: HOP-92
HT-29 = test system: HT-29
IGROV-1 = test system: IGROV-1
K562 = test system: K562
KM-20L2 = test system: KM-20L2
KM12 = test system: KM12
LOX IMVI = test system: LOX IMVI
LXFL 529 = test system: LXFL 529
M14 = test system: M14
M19-MEL = test system: M19-MEL
MOLT-4 = test system: MOLT-4
Malme-3M = test system: Malme-3M
NCI-H226 = test system: NCI-H226
NCI-H23 = test system: NCI-H23
NCI-H460 = test system: NCI-H460
NCI-H522 = test system: NCI-H522
OVCAR-3 = test system: OVCAR-3
OVCAR-4 = test system: OVCAR-4
OVCAR-5 = test system: OVCAR-5
OVCAR-8 = test system: OVCAR-8
RPMI-8226 = test system: RPMI-8226
RXF 393 = test system: RXF 393
RXF 631 = test system: RXF 631
SF-268 = test system: SF-268
SF-295 = test system: SF-295
SF-539 = test system: SF-539
SK-MEL-28 = test system: SK-MEL-28
SK-MEL-2 = test system: SK-MEL-2
SK-MEL-5 = test system: SK-MEL-5
SK-OV-3 = test system: SK-OV-3
SN12C = test system: SN12C
SNB-19 = test system: SNB-19
SNB-75 = test system: SNB-75
SNB-78 = test system: SNB-78
SR = test system: SR
SW-620 = test system: SW-620
TK-10 = test system: TK-10
U-251 = test system: U-251
UACC-257 = test system: UACC-257
UACC-62 = test system: UACC-62
UO-31 = test system: UO-31
XF498 = test system: XF498
A498 = test system: A498
DMS-114 = test system: DMS-114

In the case of `CCOC(=O)N1N=NC2C3OC(C[C@@]3(C#N)OC(C)=O)[C@H]21` (stereo partly drawn), the GI50 (786-0) is reported as > 100 µM (inactive), the GI50 (A549) is reported as > 100 µM (inactive) and the GI50 (ACHN) is reported as > 100 µM (inactive). For the same molecule, the GI50 (CAKI-1) was > 100 µM (inactive), the GI50 (CCRF-CEM) was > 100 µM (inactive) and the GI50 (COLO 205) was > 100 µM (inactive). For the same molecule, the GI50 (DLD-1) was > 100 µM (inactive), the GI50 (DMS-273) was > 100 µM (inactive) and the GI50 (EKVX) was > 100 µM (inactive). The GI50 (HCC 2998) was > 100 µM (inactive), the GI50 (HCT-116) was > 100 µM (inactive) and the GI50 (HCT-15) was > 100 µM. For the same molecule, the GI50 (HL-60) was > 100 µM (inactive), the GI50 (HOP-18) was > 100 µM (inactive) and the GI50 (HOP-62) was > 100 µM (inactive). For the same molecule, the GI50 (HOP-92) was > 100 µM (inactive), the GI50 (HT-29) was > 100 µM (inactive) and the GI50 (IGROV-1) was > 100 µM (inactive). The GI50 (K562) was > 100 µM (inactive), the GI50 (KM-20L2) was > 100 µM (inactive) and the GI50 (KM12) was > 100 µM (inactive). The GI50 (LOX IMVI) was > 100 µM (inactive), the GI50 (LXFL 529) was > 100 µM (inactive) and the GI50 (M14) was > 100 µM (inactive). The GI50 (M19-MEL) was > 100 µM (inactive), the GI50 (MOLT-4) was > 100 µM (inactive) and the GI50 (Malme-3M) was > 100 µM (inactive). For the same molecule, the GI50 (NCI-H226) was > 100 µM (inactive), the GI50 (NCI-H23) was > 100 µM (inactive) and the GI50 (NCI-H460) was > 100 µM (inactive). The GI50 (NCI-H522) was > 100 µM (inactive), the GI50 (OVCAR-3) was > 100 µM (inactive) and the GI50 (OVCAR-4) was > 100 µM (inactive). For the same molecule, the GI50 (OVCAR-5) was > 100 µM (inactive), the GI50 (OVCAR-8) was > 100 µM (inactive) and the GI50 (RPMI-8226) was > 100 µM (inactive). For the same molecule, the GI50 (RXF 393) was > 100 µM (inactive), the GI50 (RXF 631) was > 100 µM (inactive) and the GI50 (SF-268) was 51.9 µM (inactive). For the same molecule, the GI50 (SF-295) was > 100 µM (inactive), the GI50 (SF-539) was > 100 µM (inactive) and the GI50 (SK-MEL-28) was > 100 µM (inactive). The GI50 (SK-MEL-2) was > 100 µM (inactive), the GI50 (SK-MEL-5) was > 100 µM (inactive) and the GI50 (SK-OV-3) was > 100 µM (inactive). For the same molecule, the GI50 (SN12C) was > 100 µM (inactive), the GI50 (SNB-19) was > 100 µM (inactive) and the GI50 (SNB-75) was > 100 µM (inactive). For the same molecule, the GI50 (SNB-78) was > 100 µM (inactive), the GI50 (SR) was > 100 µM (inactive) and the GI50 (SW-620) was > 100 µM (inactive). The GI50 (TK-10) was > 100 µM (inactive), the GI50 (U-251) was > 100 µM (inactive) and the GI50 (UACC-257) was > 100 µM (inactive). For the same molecule, the GI50 (UACC-62) was > 100 µM (inactive), the GI50 (UO-31) was > 100 µM (inactive) and the GI50 (XF498) was > 100 µM (inactive).

In the case of `O=C(CC1(O)C(=O)Nc2c(Cl)ccc(Cl)c21)c1ccc(Cl)cc1` (stereo not drawn), the GI50 (786-0) is reported as 16.7 µM (inactive), the GI50 (A498) is reported as 38.4 µM (inactive) and the GI50 (A549) is reported as 45.5 µM (inactive). For the same molecule, the GI50 (ACHN) was 20.8 µM (inactive), the GI50 (CAKI-1) was 51.1 µM (inactive) and the GI50 (COLO 205) was 18.6 µM (inactive). The GI50 (DLD-1) was 38 µM (inactive), the GI50 (DMS-114) was 24.1 µM (inactive) and the GI50 (DMS-273) was 27 µM (inactive). The GI50 (EKVX) was 95.3 µM (inactive), the GI50 (HCC 2998) was 24.5 µM (inactive) and the GI50 (HCT-116) was 29.4 µM (inactive). The GI50 (HCT-15) was 31.4 µM, the GI50 (HOP-18) was 44.2 µM (inactive) and the GI50 (HOP-62) was 32 µM (inactive). For the same molecule, the GI50 (HOP-92) was 37.8 µM (inactive), the GI50 (HT-29) was 28.2 µM (inactive) and the GI50 (IGROV-1) was 23.9 µM (inactive). For the same molecule, the GI50 (KM-20L2) was 38.1 µM (inactive), the GI50 (KM12) was 28.4 µM (inactive) and the GI50 (LOX IMVI) was 18.5 µM (inactive). The GI50 (LXFL 529) was 25.2 µM (inactive), the GI50 (M14) was 26.4 µM (inactive) and the GI50 (M19-MEL) was 18.4 µM (inactive). For the same molecule, the GI50 (Malme-3M) was 28.8 µM (inactive), the GI50 (NCI-H226) was 38.5 µM (inactive) and the GI50 (NCI-H23) was 21.6 µM (inactive). The GI50 (NCI-H460) was 23.4 µM (inactive), the GI50 (OVCAR-3) was 23.3 µM (inactive) and the GI50 (OVCAR-4) was 25.7 µM (inactive). The GI50 (OVCAR-5) was 35.2 µM (inactive), the GI50 (OVCAR-8) was 18.9 µM (inactive) and the GI50 (RPMI-8226) was 21 µM (inactive). For the same molecule, the GI50 (RXF 393) was 21.9 µM (inactive), the GI50 (RXF 631) was 23.8 µM (inactive) and the GI50 (SF-268) was 37 µM (inactive). For the same molecule, the GI50 (SF-295) was 34.5 µM (inactive), the GI50 (SF-539) was 24.8 µM (inactive) and the GI50 (SK-MEL-28) was 53.7 µM (inactive). The GI50 (SK-MEL-2) was 25.2 µM (inactive), the GI50 (SK-OV-3) was 34.8 µM (inactive) and the GI50 (SN12C) was 18.2 µM (inactive). For the same molecule, the GI50 (SNB-19) was 67.8 µM (inactive), the GI50 (SNB-75) was 26.6 µM (inactive) and the GI50 (SNB-78) was 49.1 µM (inactive). For the same molecule, the GI50 (SW-620) was 55.5 µM (inactive), the GI50 (TK-10) was > 100 µM (inactive) and the GI50 (U-251) was 29.2 µM (inactive). The GI50 (UACC-257) was 29.9 µM (inactive), the GI50 (UACC-62) was 23.1 µM (inactive) and the GI50 (UO-31) was 34.4 µM (inactive). The GI50 (XF498) was 19.1 µM (inactive).

For `CC(C)CC(CNC(Cc1ccc(Cl)cc1)C(N)=O)NC(=O)C(Cc1c[nH]cn1)NC(=O)CNC(=O)C(NC(=O)C(C)NC(=O)C(Cc1c[nH]c2ccccc12)NC(=O)C(CCC(=O)O)NC(=O)C(N)Cc1ccccc1)C(C)C` (stereo not drawn), the GI50 (786-0) was > 133 µM (inactive), the GI50 (A498) was > 133 µM (inactive) and the GI50 (A549) was > 133 µM (inactive). For the same molecule, the GI50 (ACHN) was > 133 µM (inactive), the GI50 (CAKI-1) was > 133 µM (inactive) and the GI50 (CCRF-CEM) was > 133 µM (inactive). The GI50 (COLO 205) was > 133 µM (inactive), the GI50 (DLD-1) was > 133 µM (inactive) and the GI50 (DMS-114) was 119 µM (inactive). For the same molecule, the GI50 (DMS-273) was > 133 µM (inactive), the GI50 (EKVX) was > 133 µM (inactive) and the GI50 (HCC 2998) was > 133 µM (inactive). The GI50 (HCT-116) was > 133 µM (inactive), the GI50 (HCT-15) was > 133 µM and the GI50 (HL-60) was > 133 µM (inactive). For the same molecule, the GI50 (HOP-62) was > 133 µM (inactive), the GI50 (HOP-92) was < 0.0133 µM (active) and the GI50 (HT-29) was > 133 µM (inactive). For the same molecule, the GI50 (IGROV-1) was > 133 µM (inactive), the GI50 (K562) was > 133 µM (inactive) and the GI50 (KM-20L2) was > 133 µM (inactive). The GI50 (KM12) was > 133 µM (inactive), the GI50 (LXFL 529) was > 133 µM (inactive) and the GI50 (M19-MEL) was > 133 µM (inactive). For the same molecule, the GI50 (MOLT-4) was > 133 µM (inactive), the GI50 (NCI-H23) was > 133 µM (inactive) and the GI50 (NCI-H460) was > 133 µM (inactive). For the same molecule, the GI50 (OVCAR-3) was > 133 µM (inactive), the GI50 (OVCAR-4) was > 133 µM (inactive) and the GI50 (OVCAR-8) was > 133 µM (inactive). The GI50 (RPMI-8226) was > 133 µM (inactive), the GI50 (RXF 393) was > 133 µM (inactive) and the GI50 (RXF 631) was > 133 µM (inactive). The GI50 (SF-295) was > 133 µM (inactive), the GI50 (SF-539) was > 133 µM (inactive) and the GI50 (SK-MEL-28) was > 133 µM (inactive). The GI50 (SK-MEL-2) was > 133 µM (inactive), the GI50 (SK-OV-3) was > 133 µM (inactive) and the GI50 (SN12C) was > 133 µM (inactive). The GI50 (SNB-19) was > 133 µM (inactive), the GI50 (SNB-75) was > 133 µM (inactive) and the GI50 (SNB-78) was > 133 µM (inactive). The GI50 (SR) was > 133 µM (inactive), the GI50 (SW-620) was > 133 µM (inactive) and the GI50 (U-251) was > 133 µM (inactive). For the same molecule, the GI50 (UACC-257) was > 133 µM (inactive), the GI50 (UACC-62) was > 133 µM (inactive) and the GI50 (UO-31) was 8.17 µM (inactive). For the same molecule, the GI50 (XF498) was > 133 µM (inactive).
